Data reported in patent US10208019B2, “GLP-1 receptor agonists and uses thereof” (Pfizer Inc., priority 2016, dated 2019).
Where two headings read alike, the source gives them in different places.

Legend:
human GLP-1R [1] = biological target: human GLP-1R (Homo sapiens (Human), UniProt P43220, L260F); test: CHO GLP-1R Clone C6—Assay 2: HTRF cAMP cell-based functional agonist assay (low GLP-1R density); details: for EC50: CHO GLP-1R Clone C6, cAMP HTRF, geometric mean; for Assay 2 Emax (%) / Emax: CHO GLP-1R Clone C6, relative to saturating concentration of full agonist GLP-1 (1 μM), arithmetic mean; for Emax: read-out: Assay 2 Emax (%)
human GLP-1R [2] = biological target: human GLP-1R (Homo sapiens, UniProt P43220, G168S); test: CHO GLP-1R Clone H6—Assay 1: HTRF cAMP cell-based functional agonist assay (high GLP-1R density); details: for Assay 1 Emax (%): CHO GLP-1R Clone H6; for Assay 1 Emax (%) / Emax: relative to saturating concentration of full agonist GLP-1 (1 μM), arithmetic mean; for EC50: CHO GLP-1R Clone H6, cAMP HTRF, geometric mean; for Emax: read-out: Assay 1 Emax (%), CHO GLP-1R Clone H6
human GLP-1R (Homo sapiens, UniProt P43220, G168S), sequence (P43220 24-463 G168S limits assumed): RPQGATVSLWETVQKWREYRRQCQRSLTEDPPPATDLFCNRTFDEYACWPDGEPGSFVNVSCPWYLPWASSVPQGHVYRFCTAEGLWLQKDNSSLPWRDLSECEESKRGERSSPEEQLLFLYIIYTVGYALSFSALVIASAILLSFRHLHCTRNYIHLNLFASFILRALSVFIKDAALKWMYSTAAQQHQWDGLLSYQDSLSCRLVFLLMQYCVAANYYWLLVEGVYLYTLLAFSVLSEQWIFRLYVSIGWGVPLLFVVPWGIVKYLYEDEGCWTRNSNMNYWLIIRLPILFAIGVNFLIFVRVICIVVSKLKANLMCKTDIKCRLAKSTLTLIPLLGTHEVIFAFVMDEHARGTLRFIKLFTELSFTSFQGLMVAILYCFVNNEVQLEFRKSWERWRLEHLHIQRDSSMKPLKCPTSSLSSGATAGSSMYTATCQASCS
Method: GLP-1R-mediated agonist activity was determined with a cell-based functional assay utilizing an HTRF (Homogeneous Time-Resolved Fluorescence) cAMP detection kit (cAMP HI Range Assay Kit; CisBio cat #62AM6PEJ) that measures cAMP levels in the cell. The method is a competitive immunoassay between native cAMP produced by the cells and exogenous cAMP labeled with the dye d2. The tracer binding is visualized by a mAb anti-cAMP labeled with Cryptate. The specific signal (i.e. energy transfer) is inversely proportional to the concentration of cAMP in either standard or experimental sample.
The human GLP-1R coding sequence (NCBI Reference Sequence NP_002053.3, including naturally-occurring variant Gly168Ser) was subcloned into pcDNA3 (Invitrogen) and a cell line stably expressing the receptor was isolated (designated Clone H6).
Cells were removed from cryopreservation, re-suspended in 40 mL of Dulbecco's Phosphate Buffered Saline (DPBS-Lonza Cat #17-512Q) and centrifuged at 800×g for 5 min at 22° C. The cell pellet was then re-suspended in 10 mL of growth medium [DMEM/F12 1:1 Mixture with HEPES, L-Gln, 500 mL (DMEM/F12 Lonza Cat #12-719F), 10% heat inactivated fetal bovine serum (Gibco Cat #16140-071), 5 mL of 100× Pen-Strep (Gibco Cat #15140-122), 5 mL of 100× L-Glutamine (Gibco Cat #25030-081) and 500 μg/mL Geneticin (G418) (Invitrogen #10131035)]. A 1 mL sample of the cell suspension in growth media was counted on a Becton Dickinson ViCell to determine cell viability and cell count per mL. The remaining cell suspension was then adjusted with growth media to deliver 2000 viable cells per well using a Matrix Combi Multidrop reagent dispenser, and the cells were dispensed into a white 384 well tissue culture treated assay plate (Corning 3570). The assay plate was then incubated for 48 hours at 37° C. in a humidified environment in 5% carbon dioxide.
Varying concentrations of each compound to be tested (in DMSO) were diluted in assay buffer (HBSS with Calcium/Magnesium (Lonza/BioWhittaker cat #10-527F)/0.1% BSA (Sigma Aldrich cat #A7409-1L)/20 mM HEPES (Lonza/BioWhiftaker cat #17-737E) containing 100 μM 3-isobutyl-1-methylxanthin (IBMX; Sigma cat #15879). The final DMSO concentration is 1%.
After 48 hours, the growth media was removed from the assay plate wells, and the cells were treated with 20 μL of the serially diluted compound in assay buffer for 30 minutes at 37° C. in a humidified environment in 5% carbon dioxide. Following the 30 minute incubation, 10 μL of labeled d2 cAMP and 10 μL of anti-cAMP antibody (both diluted 1:20 in cell lysis buffer; as described in the manufacturer's assay protocol) were added to each well of the assay plate. The plates were then incubated at room temperature and after 60 minutes, changes in the HTRF signal were read with an Envision 2104 multi-label plate reader using excitation of 330 nm and emissions of 615 and 665 nm. Raw data were converted to nM cAMP by interpolation from a cAMP standard curve (as described in the manufacturer's assay protocol) and the percent effect was determined relative to a saturating concentration of the full agonist GLP-17-36 (1 μM) included on each plate. EC50 determinations were made from agonist dose-response curves analyzed with a curve fitting program using a 4-parameter logistic dose response equation.

human GLP-1R (Homo sapiens (Human), UniProt P43220, L260F), sequence (P43220 24-463 L260F): as the sequence (P43220 24-463 G168S limits assumed) above, with S145G, L237F counted along it

Row | EC50 (human GLP-1R [1]) | Assay 2 Emax (%) (human GLP-1R [1]) | Assay 1 Emax (%) (human GLP-1R [2]) | EC50 (human GLP-1R [2]; read-out: Assay 1 EC50) | Emax (human GLP-1R [1]) | EC50 (human GLP-1R [2]; Assay 1 EC50 (nM)) | Emax (human GLP-1R [2]) | Structure (SMILES)
1 | 0.12 µM |  | 66% | 5.2 nM | 80% |  |  | COCCn1c(CN2CCC(c3cccc(OCc4ccc(Cl)cc4F)n3)CC2C)nc2ccc(C(=O)O)cc21 (single isomer, unassigned) [Example 13A-03, cis 2-{[4-{6-[(4-Chloro-2-fluorobenzyl)oxy]pyridin-2-yl}-2-methylpiperidin-1-yl]methyl}-1-(2-methoxyethyl)-1H-benzimidazole-6-carboxylic acid]
2 | 1.4 µM | 83% | 66% |  |  | 46 nM |  | COCCn1c(CN2CCC(c3cccc(OCc4ccc(Cl)cc4F)n3)CC2C)nc2ccc(C(=O)O)cc21 (single isomer, unassigned) [Example 13A-04, cis 2-{[4-{6-[(4-Chloro-2-fluorobenzyl)oxy]pyridin-2-yl}-2-methylpiperidin-1-yl]methyl}-1-(2-methoxyethyl)-1H-benzimidazole-6-carboxylic acid]
3 |  |  |  | 3100 nM |  |  | 51% | O=C(O)c1ccc2nc(CN3CCC(c4cccc(OCc5ccc(Cl)cc5F)n4)CC3)n(CCC3CCOCC3)c2c1 [Example 11A-65, 2-[(4-{6-[(4-chloro-2-fluorobenzyl)oxy]pyridin-2-yl}piperidin-1-yl)methyl]-1-[2-(tetrahydro-2H-pyran-4-yl)ethyl]-1H-benzimidazole-6-carboxylic acid]
4 |  |  |  | 4000 nM |  |  | 91% | Cc1n[nH]c(CCn2c(CN3CCC(c4cccc(OCc5ccc(Cl)cc5F)n4)CC3)nc3ccc(C(=O)O)cc32)n1 [Example 11A-66, 2-[(4-{6-[(4-chloro-2-fluorobenzyl)oxy]pyridin-2-yl}piperidin-1-yl)methyl]-1-[2-(3-methyl-1H-1,2,4-triazol-5-yl)ethyl]-1H-benzimidazole-6-carboxylic acid]
5 |  |  |  | 9300 nM |  |  | 100% | Cc1nc(C(C)n2c(CN3CCC(c4cccc(OCc5ccc(Cl)cc5F)n4)CC3)nc3ccc(C(=O)O)cc32)n[nH]1 (stereo not drawn) [Example 11A-67, 2-[(4-{6-[(4-chloro-2-fluorobenzyl)oxy]pyridin-2-yl}piperidin-1-yl)methyl]-1-[1-(5-methyl-1H-1,2,4-triazol-3-yl)ethyl]-1H-benzimidazole-6-carboxylic acid]
6 |  |  |  | 560 nM |  |  | 72% | COCC1(Cn2c(CN3CCC(c4cccc(OCc5ccc(Cl)cc5F)n4)CC3)nc3ccc(C(=O)O)cc32)CCC1 [Example 11A-74, 2-[(4-{6-[(4-chloro-2-fluorobenzyl)oxy]pyridin-2-yl}piperidin-1-yl)methyl]-1-{[1-(methoxymethyl)cyclobutyl]methyl}-1H-benzimidazole-6-carboxylic acid]
7 |  |  |  | 600 nM |  |  | 70% | COCCn1c(CN2CCN(c3cccc(OCc4ccc(Cl)cc4F)n3)CC23CC3)nc2ccc(C(=O)O)cc21 [Example 12A-03, 2-[(7-{6-[(4-chloro-2-fluorobenzyl)oxy]pyridin-2-yl}-4,7-diazaspiro[2.5]oct-4-yl)methyl]-1-(2-methoxyethyl)-1H-benzimidazole-6-carboxylic acid]
8 |  |  |  | 250 nM |  |  | 64% | COCCn1c(CN2CCN(c3cccc(OCc4ccc(Cl)cc4F)n3)C[C@@H]2C2CC2)nc2ccc(C(=O)O)cc21 [Example 12A-04, 2-{[(2S)-4-{6-[(4-chloro-2-fluorobenzyl)oxy]pyridin-2-yl}-2-cyclopropylpiperazin-1-yl]methyl}-1-(2-methoxyethyl)-1H-benzimidazole-6-carboxylic acid]
9 |  |  |  | 1300 nM |  |  | 42% | COCCn1c(CN2CCN(c3cccc(OCc4ccc(Cl)cc4F)n3)C[C@@H]2C(C)C)nc2ccc(C(=O)O)cc21 [Example 12A-05, 2-{[(2S)-4-{6-[(4-chloro-2-fluorobenzyl)oxy]pyridin-2-yl}-2-(propan-2-yl)piperazin-1-yl]methyl}-1-(2-methoxyethyl)-1H-benzimidazole-6-carboxylic acid]
10 |  |  |  | 510 nM |  |  | 64% | COCCn1c(CN2CCN(c3cccc(OCc4ccc(Cl)cc4F)n3)CC2(C)C)nc2ccc(C(=O)O)cc21 [Example 12A-06, 2-[(4-{6-[(4-chloro-2-fluorobenzyl)oxy]pyridin-2-yl}-2,2-dimethylpiperazin-1-yl)methyl]-1-(2-methoxyethyl)-1H-benzimidazole-6-carboxylic acid]

The remaining lines, values behind:

Row | Structure (SMILES) | EC50 (human GLP-1R [1]) | Assay 2 Emax (%) (human GLP-1R [1]) | Assay 1 Emax (%) (human GLP-1R [2]) | EC50 (human GLP-1R [2]; read-out: Assay 1 EC50) | Emax (human GLP-1R [1]) | EC50 (human GLP-1R [2]; Assay 1 EC50 (nM)) | Emax (human GLP-1R [2])
11 | COCCn1c(CN2CC[C@@H](c3cccc(OCc4ccc(Cl)cc4F)n3)[C@H](F)C2)nc2ccc(C(=O)O)cc21 (racemic) [Example 1A-22, rac 2-{[(3S,4S)-4-{6-[(4-chloro-2-fluorobenzyl)oxy]pyridin-2-yl}-3-fluoropiperidin-1-yl]methyl}-1-(2-methoxyethyl)-1H-benzimidazole-6-carboxylic acid] | 0.4 µM | 86% | 78% | 36 nM |  |  | 
12 | COCCn1c(CN2CC[C@@H](c3cccc(OCc4ccc(Cl)cc4F)n3)[C@H](O)C2)nc2ccc(C(=O)O)cc21 (racemic) [Example 1A-23, rac-2-{[(3S,4S)-4-{6-[(4-chloro-2-fluorobenzyl)oxy]pyridin-2-yl}-3-hydroxypiperidin-1-yl]methyl}-1-(2-methoxyethyl)-1H-benzimidazole-6-carboxylic acid] | 1 µM |  |  |  | 98% | 50 nM | 83%
13 | COCCn1c(CN2CC[C@@H](c3cccc(OCc4ccc(Cl)cc4F)n3)[C@@H](C)C2)nc2ccc(C(=O)O)cc21 (racemic) [Example 1A-25, rac-2-{[(3R,4R)-4-{6-[(4-chloro-2-fluorobenzyl)oxy]pyridin-2-yl}-3-methylpiperidin-1-yl]methyl}-1-(2-methoxyethyl)-1H-benzimidazole-6-carboxylic acid] | 1 µM |  |  |  | 84% | 45 nM | 65%
14 | COCCn1c(CN2CC[C@@H](c3cccc(OCc4ccc(Cl)cc4F)n3)[C@H](C)C2)nc2ccc(C(=O)O)cc21 (racemic) [Example 1A-26, rac-2-{[(3S,4R)-4-{6-[(4-chloro-2-fluorobenzyl)oxy]pyridin-2-yl}-3-methylpiperidin-1-yl]methyl}-1-(2-methoxyethyl)-1H-benzimidazole-6-carboxylic acid] | 1.8 µM |  |  |  | 85% | 70 nM | 80%
15 | CO[C@H]1CCC[C@H]1Cn1c(CN2CCC(c3cccc(OCc4ccc(Cl)cc4F)n3)CC2)nc2ccc(C(=O)O)cc21 (racemic) [Example 1A-29, rac-2-[(4-{6-[(4-chloro-2-fluorobenzyl)oxy]pyridin-2-yl}piperidin-1-yl)methyl]-1-{[(1S,2S)-2-methoxycyclopentyl]methyl}-1H-benzimidazole-6-carboxylic acid] | 5.6 µM |  |  |  | 86% | 260 nM | 88%
16 | C[C@H]1CN(c2cccc(OCc3ccc(C#N)cc3)n2)CCN1Cc1nc2ccc(C(=O)O)cc2n1CC1CCCO1 (single isomer, unassigned; diastereomer 1) [Example 14A-07] | 0.055 µM |  | 63% | 1.9 nM |  |  | 
17 | C[C@H]1CN(c2cccc(OCc3ccc(C#N)cc3F)n2)CCN1Cc1nc2ccc(C(=O)O)cc2n1CC1CCCO1 (single isomer, unassigned; diastereomer 1) [Example 14A-11] | 0.14 µM | 71% | 65% | 7 nM |  |  | 
18 | C[C@H]1CN(c2cccc(OCc3ccc(C#N)cc3)n2)CCN1Cc1nc2ccc(C(=O)O)cc2n1CC1CCCO1 (single isomer, unassigned; diastereomer 2) [Example 14A-08] | 0.38 µM |  |  | 19 nM |  |  | 
19 | CC(c1cnn(C)n1)n1c(CN2CCC(c3cccc(OCc4ccc(Cl)cc4F)n3)CC2)nc2ccc(C(=O)O)cc21 (stereo not drawn) [Example 11A-60, 2-[(4-{6-[(4-chloro-2-fluorobenzyl)oxy]pyridin-2-yl}piperidin-1-yl)methyl]-1-[1-(2-methyl-2H-1,2,3-triazol-4-yl)ethyl]-1H-benzimidazole-6-carboxylic acid] |  |  |  | 1600 nM |  |  | 80%
20 | Cc1ccc(Cn2c(CN3CCC(c4cccc(OCc5ccc(Cl)cc5F)n4)CC3)nc3ccc(C(=O)O)cc32)cn1 [Example 11A-61, 2-[(4-{6-[(4-chloro-2-fluorobenzyl)oxy]pyridin-2-yl}piperidin-1-yl)methyl]-1-[(6-methylpyridin-3-yl)methyl]-1H-benzimidazole-6-carboxylic acid] |  |  |  | 1900 nM |  |  | 79%
21 | COCc1cc(Cn2c(CN3CCC(c4cccc(OCc5ccc(Cl)cc5F)n4)CC3)nc3ccc(C(=O)O)cc32)[nH]n1 [Example 11A-62, 2-[(4-{6-[(4-chloro-2-fluorobenzyl)oxy]pyridin-2-yl}piperidin-1-yl)methyl]-1-{[3-(methoxymethyl)-1H-pyrazol-5-yl]methyl}-1H-benzimidazole-6-carboxylic acid] |  |  |  | 2200 nM |  |  | 87%
22 | CN1CCOC(Cn2c(CN3CCC(c4cccc(OCc5ccc(Cl)cc5F)n4)CC3)nc3ccc(C(=O)O)cc32)C1 (stereo not drawn) [Example 11A-63, 2-[(4-{6-[(4-chloro-2-fluorobenzyl)oxy]pyridin-2-yl}piperidin-1-yl)methyl]-1-[(4-methylmorpholin-2-yl)methyl]-1H-benzimidazole-6-carboxylic acid] |  |  |  | 2500 nM |  |  | 71%
23 | O=C(O)c1ccc2nc(CN3CCC(c4cccc(OCc5ccc(Cl)cc5F)n4)CC3)n(Cc3n[nH]c(C4CC4)n3)c2c1 [Example 11A-64, 2-[(4-{6-[(4-chloro-2-fluorobenzyl)oxy]pyridin-2-yl}piperidin-1-yl)methyl]-1-[(5-cyclopropyl-1H-1,2,4-triazol-3-yl)methyl]-1H-benzimidazole-6-carboxylic acid] |  |  |  | 2900 nM |  |  | 88%
